Experimental data from patent publication US8106055B2, “Substituted amide compounds” (Gruenenthal GmbH, priority 2007, dated 2012).

biological target: T1, human bradykinin 1 receptor (B1R) (Homo sapiens, UniProt P46663); experiment: Functional investigation on the human bradykinin 1 receptor (B1R), Ca2+ FLIPR assay in CHO K1 hB1R cells; format: cell-based; details: B1R antagonism human; test substance 10 μM; Ca2+ FLIPR, CHO K1 hB1R cells
T1 construct: expressed in transfected cells; host or cells: CHO K1 cells
T1 sequence (P46663 1-353): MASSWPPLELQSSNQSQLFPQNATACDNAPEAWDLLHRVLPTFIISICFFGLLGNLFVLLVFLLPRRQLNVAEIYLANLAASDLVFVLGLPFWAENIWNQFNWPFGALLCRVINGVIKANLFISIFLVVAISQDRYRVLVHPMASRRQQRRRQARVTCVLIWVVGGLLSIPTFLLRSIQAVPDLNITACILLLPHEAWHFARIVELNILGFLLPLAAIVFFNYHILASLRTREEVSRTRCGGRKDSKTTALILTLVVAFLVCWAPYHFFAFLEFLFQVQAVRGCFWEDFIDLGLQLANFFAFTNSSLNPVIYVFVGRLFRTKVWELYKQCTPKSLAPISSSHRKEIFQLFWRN
Procedure, shortened: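 Cells were dye-loaded with Fluo-4 plus probenecid, then test substances added and Ca2+ influx compared with agonist control for % activation. After 10-20 min, EC80 agonist (Lys-Des-Arg9-bradykinin human; Des-Arg9-bradykinin rat) was applied; suppression gave % inhibition and IC50 values.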

| SMILES | B1R Ant. h [10 μM] % Inhibition [%] |
| --- | --- |
| COc1ccc(S(=O)(=O)N2CCCCC2COCC(=O)NCC2CCC(C(c3ccc(F)cc3)N(C)C)CC2)c(OC)c1 (stereo not drawn) [Example 405] | 5 |
| COc1cc(C)c(S(=O)(=O)N(CCOCC(=O)NCCC2CCC(C(c3cccc(F)c3)N(C)C)CC2)Cc2ccccc2)c(C)c1C (stereo not drawn) [Example 436] | 8 |
| CN(C)C(CCc1ccccc1)C1CCC(CNC(=O)COCCN(C)S(=O)(=O)c2ccc(Cl)cc2)CC1 (stereo not drawn) [Example 445] | 66 |
| CN(C)C(c1ccc(F)cc1)C1CCC(NC(=O)COC2CCN(S(=O)(=O)c3ccccc3)CC2)CC1 (stereo not drawn) [Example 408] | −16 |
| COc1ccc(S(=O)(=O)N2CCCCC2COCC(=O)NCC2CCC(C(c3ccc(Cl)cc3)N(C)C)CC2)cc1OC (stereo not drawn) [Example 367] | −9 |
| COc1cc(C)c(S(=O)(=O)N(C)CCOCC(=O)NC2CCC(C(c3ccc(F)cc3)N(C)C)CC2)c(C)c1 (stereo not drawn) [Example 422] | 104 |
| COc1ccc(S(=O)(=O)N2Cc3ccccc3CC2COCC(=O)NCC2CCC(C(CCc3ccccc3)N(C)C)CC2)cc1 (stereo not drawn) [Example 373] | 98 |
| CCN(CCOCC(=O)NCCC1CCC(C(c2ccc(F)cc2)N(C)C)CC1)S(=O)(=O)c1c(C)cc(OC)c(C)c1C (stereo not drawn) [Example 413] | 96 |
| COc1cc(C)c(S(=O)(=O)N(CCOCC(=O)NC2CCC(C(c3cccc(F)c3)N(C)C)CC2)Cc2ccccc2)c(C)c1C (stereo not drawn) [Example 419] | 37 |
| CN(C)C(c1ccc(F)cc1)C1CCC(CNC(=O)COCCN(C)S(=O)(=O)c2ccc(Cl)cc2)CC1 (stereo not drawn) [Example 399] | 20 |
| COc1cc(C)c(S(=O)(=O)N2CCC(OCC(=O)NC3CCC(C(c4ccc(F)cc4)N(C)C)CC3)C2)c(C)c1 (stereo not drawn) [Example 441] | 94 |
| CN(C)C(c1ccc(F)cc1)C1CCC(CNC(=O)COCCN(C)S(=O)(=O)c2ccc(F)cc2)CC1 (stereo not drawn) [Example 400] | 3 |
| CN(C)C(c1ccc(F)cc1)C1CCC(CNC(=O)COCC2CCCN(S(=O)(=O)c3ccccc3)C2)CC1 (stereo not drawn) [Example 424] | −12 |
| COc1ccc(S(=O)(=O)N(C)CCOCC(=O)NCC2CCC(C(c3ccc(Cl)cc3)N(C)C)CC2)cc1OC (stereo not drawn) [Example 379] | −5 |
| CN(C)C(c1ccc(Cl)cc1)C1CCC(CCNC(=O)COC2CCN(S(=O)(=O)c3cccc(C(F)(F)F)c3)C2)CC1 (stereo not drawn) [Example 431] | 25 |
| COc1cc(C)c(S(=O)(=O)N(C)CCOCC(=O)NCCC2CCC(C(c3ccc(F)cc3)N(C)C)CC2)c(C)c1 (stereo not drawn) [Example 392] | 104 |
| CN(C)C(c1ccc(Cl)cc1)C1CCC(CCNC(=O)COC2CCCN(S(=O)(=O)c3ccccc3)C2)CC1 (stereo not drawn) [Example 395] | 27 |
| Cc1cc(C)c(S(=O)(=O)N2CCC(OCC(=O)NCC3CCC(C(c4ccc(F)cc4)N(C)C)CC3)C2)c(C)c1 (stereo not drawn) [Example 432] | 61 |
| CN(C)C(c1ccc(Cl)cc1)C1CCC(CCNC(=O)COC2CCN(S(=O)(=O)c3ccccc3)CC2)CC1 (stereo not drawn) [Example 443] | 21 |
| COc1ccc(S(=O)(=O)N2Cc3ccccc3CC2COCC(=O)NCCC2CCC(C(c3ccc(Cl)cc3)N(C)C)CC2)cc1 (stereo not drawn) [Example 374] | 18 |

| SMILES | B1R Ant. h [10 μM] % Inhibition [%] |
| --- | --- |
| CN(C)C(c1cccc(F)c1)C1CCC(CCNC(=O)COC2CCN(S(=O)(=O)c3ccccc3)C2)CC1 (stereo not drawn) [Example 376] | −17 |
| CN(C)C(c1ccc(F)cc1)C1CCC(NC(=O)COCCN(C)S(=O)(=O)c2ccc(Cl)cc2)CC1 (stereo not drawn) [Example 406] | 5 |
| COc1cc(C)c(S(=O)(=O)N2CCN(CCOCC(=O)NCC3CCC(C(c4ccc(F)cc4)N(C)C)CC3)CC2)c(C)c1C (stereo not drawn) [Example 366] | 55 |
| CN(C)C(c1ccc(F)cc1)C1CCC(NC(=O)COC2CCN(S(=O)(=O)c3ccc(F)cc3)C2)CC1 (stereo not drawn) [Example 381] | −19 |
| CN(C)C(c1ccc(F)cc1)C1CCC(NC(=O)COCCN(C)S(=O)(=O)c2c(Cl)cc(Cl)cc2Cl)CC1 (stereo not drawn) [Example 382] | 103 |
| CN(C)C(c1ccc(Cl)cc1)C1CCC(CNC(=O)COC2CCN(S(=O)(=O)c3ccc(F)cc3)C2)CC1 (stereo not drawn) [Example 394] | 2 |
| CN(C)C(c1ccc(F)cc1)C1CCC(NC(=O)COC2CCCN(S(=O)(=O)c3ccccc3)C2)CC1 (stereo not drawn) [Example 423] | 4 |
| COc1ccc(S(=O)(=O)N2Cc3ccccc3CC2COCC(=O)NCCC2CCC(C(c3ccc(F)cc3)N(C)C)CC2)cc1 (stereo not drawn) [Example 389] | 36 |
| COc1cc(C)c(S(=O)(=O)N2CCC(OCC(=O)NCC3CCC(C(c4ccc(Cl)cc4)N(C)C)CC3)C2)c(C)c1C (stereo not drawn) [Example 428] | 48 |
| COc1ccc(S(=O)(=O)N2CCCC2COCC(=O)NCCC2CCC(C(c3ccc(F)cc3)N(C)C)CC2)cc1 (stereo not drawn) [Example 409] | 45 |
| COc1cc(C)c(S(=O)(=O)N2CCC(OCC(=O)NCC3CCC(C(c4ccc(F)cc4)N(C)C)CC3)C2)c(C)c1C (stereo not drawn) [Example 427] | 76 |
| COc1cc(C)c(S(=O)(=O)N(CCOCC(=O)NCC2CCC(C(c3cccc(F)c3)N(C)C)CC2)Cc2ccccc2)c(C)c1 (stereo not drawn) [Example 388] | 74 |
| CN(C)C(c1ccc(F)cc1)C1CCC(CCNC(=O)COCCN(C)S(=O)(=O)c2ccc(Cl)cc2)CC1 (stereo not drawn) [Example 377] | 28 |
| Cc1ccc(S(=O)(=O)N2CCC(OCC(=O)NCC3CCC(C(c4ccc(F)cc4)N(C)C)CC3)C2)cc1 (stereo not drawn) [Example 447] | 24 |
| CN(C)C(c1ccc(F)cc1)C1CCC(CNC(=O)COCCN(C)S(=O)(=O)c2c(Cl)cc(Cl)cc2Cl)CC1 (stereo not drawn) [Example 404] | 104 |
| CN(C)C(c1ccc(Cl)cc1)C1CCC(CCNC(=O)COCCN(Cc2ccccc2)S(=O)(=O)c2ccccc2)CC1 (stereo not drawn) [Example 426] | −7 |
| CN(C)C(c1ccc(F)cc1)C1CCC(CNC(=O)COCCN(C)S(=O)(=O)c2cccc(C(F)(F)F)c2)CC1 (stereo not drawn) [Example 390] | 55 |
| CN(C)C(c1ccc(Cl)cc1)C1CCC(CCNC(=O)COC2CCN(S(=O)(=O)c3ccc(F)cc3)C2)CC1 (stereo not drawn) [Example 440] | 8 |
| COc1cc(C)c(S(=O)(=O)N2CCC(OCC(=O)NCC3CCC(C(c4ccc(Cl)cc4)N(C)C)CC3)C2)c(C)c1 (stereo not drawn) [Example 403] | 106 |
